According to patent US20100267561A1, “HERBICIDAL PYRIDAZINONE DERIVATIVES” (priority 2007, published 2010):

Columns and labels:
Assay in all cases: Test B pre-/postemergence plant response
Assay type in all cases: in vivo
[1] = system: pigweed (Amaranthus retroflexus)
Method in brief: (§1)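 Preemergence and postemergence (plants 2-18 cm, 1- to 4-leaf stage) applications used test chemicals in a non-phytotoxic solvent with surfactant. Plants were held in a greenhouse 13 to 15 days, then rated visually against controls on a 0-100 scale (0 no effect, 100 complete control).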

[2] = system: common (oilseed) sunflower (Helianthus annuus); details: Preemergence
Method in brief: as §1

[3] = system: giant foxtail (Setaria faberii)
Method in brief: as §1

[4] = system: johnsongrass (Sorghum halepense)
Method in brief: as §1

[5] = system: green foxtail (Setaria viridis)
Method in brief: as §1

[6] = system: eastern black (E.B.) nightshade (Solanum ptycanthum); details: Preemergence
Method in brief: as §1

corn (Zea mays) = system: corn (Zea mays)
Method in brief: as §1

[7] = system: surinam grass (Brachiaria decumbens)
Method in brief: as §1

[8] = system: goosegrass (Eleusine indica)
Method in brief: as §1

[9] = system: common ragweed (Ambrosia elation)
Method in brief: as §1

[10] = system: Italian ryegrass (Lolium multiflorum)
Method in brief: as §1

[11] = system: yellow nutsedge (Cyperus esculentus)
Method in brief: as §1

kochia (Kochia scoparia) = system: kochia (Kochia scoparia)
Method in brief: as §1

[12] = system: Russian thistle (Salsola iberica); details: Preemergence
Method in brief: as §1

[13] = 8 g ai/ha, postemergence, 0-100 scale
[14] = Postemergence, 16 g ai/ha, scale 0 to 100
[15] = Postemergence, 31 g ai/ha, scale 0 to 100
[16] = Postemergence, 62 g ai/ha, scale 0 to 100, 0 no effect, 100 complete control
[17] = Preemergence, 31 g ai/ha, scale 0 to 100 (0 no effect, 100 complete control)
[18] = Preemergence, 62 g ai/ha, 0 to 100 scale, 0 no effect, 100 complete control
[19] = Preemergence, 8 g ai/ha, scale 0 to 100
[20] = Preemergence, 16 g ai/ha, scale 0 to 100
[21] = 31 g ai/ha, scale 0 to 100 (0 no effect, 100 complete control)
[22] = 62 g ai/ha, 0 to 100 scale, 0 no effect, 100 complete control
[23] = Preemergence, 16 g ai/ha, scale 0 to 100 (0 no effect, 100 complete control)
[24] = Preemergence, 31 g ai/ha, 0 to 100 scale, 0 no effect, 100 complete control
[25] = Preemergence, 62 g ai/ha, scale 0 to 100
[26] = 16 g ai/ha, scale 0 to 100 (0 no effect, 100 complete control)
[27] = 31 g ai/ha, 0 to 100 scale, 0 no effect, 100 complete control

CCCC(=O)Oc1cnn(C)c(=O)c1-n1nc(-c2ccc(Cl)cc2)cc1C [Compound 56]
Pigweed plant response rating [1, 13]: 0 | Plant response rating, Pigweed [1, 14]: 0 | Plant response rating, Pigweed [1, 15]: 0 | Plant response rating, Pigweed [1, 16]: 0 | Plant response rating, Pigweed [1, 17]: 0 | Plant response rating, Pigweed [1, 18]: 0 | Pigweed plant response rating [1, 19]: 0 | Pigweed plant response rating [1, 20]: 0 | Plant response rating, Sunflower [2, 21]: 0 | Plant response rating, Sunflower [2, 22]: 0 | Sunflower plant response rating ([2]; 8 g ai/ha, scale 0 to 100): 0 | Sunflower plant response rating ([2]; 16 g ai/ha, scale 0 to 100): 0 | Foxtail, Giant plant response rating [3, 13]: 75 | Plant response rating, Foxtail, Giant [3, 14]: 98 | Plant response rating, Foxtail, Giant [3, 15]: 98 | Plant response rating, Foxtail, Giant [3, 16]: 100 | Plant response rating, Foxtail, Giant [3, 17]: 100 | Plant response rating, Foxtail, Giant [3, 18]: 100 | Foxtail, Giant plant response rating [3, 19]: 95 | Foxtail, Giant plant response rating [3, 20]: 100 | Johnsongrass plant response rating [4, 13]: 0 | Plant response rating, Johnsongrass [4, 14]: 65 | Plant response rating, Johnsongrass [4, 15]: 85 | Plant response rating, Johnsongrass [4, 16]: 100 | Plant response rating, Johnsongrass [4, 17]: 70 | Plant response rating, Johnsongrass [4, 18]: 100 | Johnsongrass plant response rating [4, 19]: 60 | Johnsongrass plant response rating [4, 20]: 65 | Foxtail, Green plant response rating [5, 13]: 50 | Plant response rating, Foxtail, Green [5, 14]: 90 | Plant response rating, Foxtail, Green [5, 15]: 90 | Plant response rating, Foxtail, Green [5, 16]: 100 | Plant response rating, Foxtail, Green [5, 17]: 100 | Plant response rating, Foxtail, Green [5, 18]: 100 | Foxtail, Green plant response rating [5, 19]: 65 | Foxtail, Green plant response rating [5, 20]: 65 | Plant response rating, Nightshade, E. B. [6, 21]: 0 | Plant response rating, Nightshade, E. B. [6, 22]: 20 | Nightshade, E. B. plant response rating ([6]; 8 g ai/ha, scale 0 to 100): 0 | Nightshade, E. B. plant response rating ([6]; 16 g ai/ha, scale 0 to 100): 0 | Corn plant response rating (corn (Zea mays); [13]): 75 | Plant response rating, Corn (corn (Zea mays); [14]): 85 | Plant response rating, Corn (corn (Zea mays); [15]): 95 | Plant response rating, Corn (corn (Zea mays); [16]): 95 | Plant response rating, Corn (corn (Zea mays); [17]): 95 | Plant response rating, Corn (corn (Zea mays); [18]): 95 | Corn plant response rating (corn (Zea mays); [19]): 0 | Corn plant response rating (corn (Zea mays); [20]): 10 | Surinam Grass plant response rating [7, 13]: 70 | Plant response rating, Surinam Grass [7, 14]: 75 | Plant response rating, Surinam Grass [7, 15]: 98 | Plant response rating, Surinam Grass [7, 16]: 100 | Plant response rating, Surinam Grass [7, 17]: 100 | Plant response rating, Surinam Grass [7, 18]: 100 | Surinam Grass plant response rating [7, 19]: 75 | Surinam Grass plant response rating [7, 20]: 90 | Goosegrass plant response rating [8, 13]: 60 | Plant response rating, Goosegrass [8, 14]: 65 | Plant response rating, Goosegrass [8, 15]: 75 | Plant response rating, Goosegrass [8, 16]: 98 | Plant response rating, Goosegrass [8, 17]: 98 | Plant response rating, Goosegrass [8, 18]: 100 | Goosegrass plant response rating [8, 19]: 75 | Goosegrass plant response rating [8, 20]: 80 | Ragweed plant response rating [9, 13]: 0 | Plant response rating, Ragweed [9, 14]: 0 | Plant response rating, Ragweed [9, 15]: 0 | Plant response rating, Ragweed [9, 16]: 0 | Plant response rating, Ragweed [9, 17]: 0 | Plant response rating, Ragweed [9, 18]: 0 | Ragweed plant response rating [9, 19]: 0 | Ragweed plant response rating [9, 20]: 0 | Ryegrass, Italian plant response rating [10, 13]: 0 | Plant response rating, Ryegrass, Italian [10, 14]: 40 | Plant response rating, Ryegrass, Italian [10, 15]: 60 | Plant response rating, Ryegrass, Italian [10, 16]: 65 | Plant response rating, Ryegrass, Italian [10, 17]: 98 | Plant response rating, Ryegrass, Italian [10, 18]: 100 | Ryegrass, Italian plant response rating [10, 19]: 60 | Ryegrass, Italian plant response rating [10, 20]: 98 | Nutsedge, Yellow plant response rating [11, 13]: 0 | Plant response rating, Nutsedge, Yellow [11, 14]: 0 | Plant response rating, Nutsedge, Yellow [11, 15]: 0 | Plant response rating, Nutsedge, Yellow [11, 16]: 0 | Plant response rating, Nutsedge, Yellow [11, 17]: 0 | Plant response rating, Nutsedge, Yellow [11, 18]: 0 | Nutsedge, Yellow plant response rating [11, 19]: 0 | Nutsedge, Yellow plant response rating [11, 20]: 0 | Kochia plant response rating (kochia (Kochia scoparia); [13]): 0 | Plant response rating, Kochia (kochia (Kochia scoparia); [14]): 0 | Plant response rating, Kochia (kochia (Kochia scoparia); [15]): 0 | Plant response rating, Kochia (kochia (Kochia scoparia); [16]): 0 | Plant response rating, Kochia (kochia (Kochia scoparia); [17]): 98 | Plant response rating, Kochia (kochia (Kochia scoparia); [18]): 100 | Kochia plant response rating (kochia (Kochia scoparia); [19]): 0 | Kochia plant response rating (kochia (Kochia scoparia); [20]): 20 | Plant response rating, Russian Thistle [12, 21]: 0 | Plant response rating, Russian Thistle [12, 22]: 0 | Russian Thistle plant response rating ([12]; 8 g ai/ha, scale 0 to 100): 0 | Russian Thistle plant response rating ([12]; 16 g ai/ha, scale 0 to 100): 0

Cc1cc(-c2ccc(C(F)(F)F)cc2)nn1-c1c(O)c(C(C)C)nn(C)c1=O [Compound 27]
Plant response rating, Pigweed [1, 23]: 0 | Plant response rating, Pigweed [1, 24]: 0 | Plant response rating, Pigweed [1, 25]: 0 | Pigweed plant response rating [1, 19]: 0 | Plant response rating, Sunflower [2, 26]: 0 | Plant response rating, Sunflower [2, 27]: 0 | Plant response rating, Sunflower ([2]; 62 g ai/ha, scale 0 to 100): 0 | Sunflower plant response rating ([2]; 8 g ai/ha, scale 0 to 100): 0 | Plant response rating, Foxtail, Giant [3, 23]: 0 | Plant response rating, Foxtail, Giant [3, 24]: 0 | Plant response rating, Foxtail, Giant [3, 25]: 20 | Foxtail, Giant plant response rating [3, 19]: 0 | Plant response rating, Johnsongrass [4, 23]: 40 | Plant response rating, Johnsongrass [4, 24]: 75 | Plant response rating, Johnsongrass [4, 25]: 85 | Johnsongrass plant response rating [4, 19]: 0 | Plant response rating, Foxtail, Green [5, 23]: 0 | Plant response rating, Foxtail, Green [5, 24]: 60 | Plant response rating, Foxtail, Green [5, 25]: 85 | Foxtail, Green plant response rating [5, 19]: 0 | Plant response rating, Nightshade, E. B. [6, 26]: 0 | Plant response rating, Nightshade, E. B. [6, 27]: 0 | Plant response rating, Nightshade, E. B. ([6]; 62 g ai/ha, scale 0 to 100): 0 | Nightshade, E. B. plant response rating ([6]; 8 g ai/ha, scale 0 to 100): 0 | Plant response rating, Corn (corn (Zea mays); [23]): 0 | Plant response rating, Corn (corn (Zea mays); [24]): 75 | Plant response rating, Corn (corn (Zea mays); [25]): 85 | Corn plant response rating (corn (Zea mays); [19]): 0 | Plant response rating, Surinam Grass [7, 23]: 0 | Plant response rating, Surinam Grass [7, 24]: 0 | Plant response rating, Surinam Grass [7, 25]: 75 | Surinam Grass plant response rating [7, 19]: 0 | Plant response rating, Goosegrass [8, 23]: 75 | Plant response rating, Goosegrass [8, 24]: 95 | Plant response rating, Goosegrass [8, 25]: 95 | Goosegrass plant response rating [8, 19]: 0 | Plant response rating, Ragweed [9, 23]: 0 | Plant response rating, Ragweed [9, 24]: 0 | Plant response rating, Ragweed [9, 25]: 0 | Ragweed plant response rating [9, 19]: 0 | Plant response rating, Ryegrass, Italian [10, 23]: 0 | Plant response rating, Ryegrass, Italian [10, 24]: 70 | Plant response rating, Ryegrass, Italian [10, 25]: 95 | Ryegrass, Italian plant response rating [10, 19]: 0 | Plant response rating, Nutsedge, Yellow [11, 23]: 0 | Plant response rating, Nutsedge, Yellow [11, 24]: 0 | Plant response rating, Nutsedge, Yellow [11, 25]: 0 | Nutsedge, Yellow plant response rating [11, 19]: 0 | Plant response rating, Russian Thistle [12, 26]: 0 | Plant response rating, Russian Thistle [12, 27]: 0 | Plant response rating, Russian Thistle ([12]; 62 g ai/ha, scale 0 to 100): 0 | Russian Thistle plant response rating ([12]; 8 g ai/ha, scale 0 to 100): 0
